{
  "source": "patent US20250235437A1",
  "about": "“PROTEOLYSIS TARGETING CHIMERA (PROTAC) MOLECULE FOR DEGRADATION OF ENL AND CANCER THERAPY” (Baylor College of Medicine, priority 2022, published 2025)",
  "key": {"ENL [1]": {"target": "T1, ENL (Homo sapiens, UniProt Q03111)", "T1 construct": "tested whether the compounds degrade ENL and AF9 in MV4;11 leukemia cells; endogenous in cells; host or cells: MV4;11; Molm-13", "T1 sequence (Q03111 1-559)": "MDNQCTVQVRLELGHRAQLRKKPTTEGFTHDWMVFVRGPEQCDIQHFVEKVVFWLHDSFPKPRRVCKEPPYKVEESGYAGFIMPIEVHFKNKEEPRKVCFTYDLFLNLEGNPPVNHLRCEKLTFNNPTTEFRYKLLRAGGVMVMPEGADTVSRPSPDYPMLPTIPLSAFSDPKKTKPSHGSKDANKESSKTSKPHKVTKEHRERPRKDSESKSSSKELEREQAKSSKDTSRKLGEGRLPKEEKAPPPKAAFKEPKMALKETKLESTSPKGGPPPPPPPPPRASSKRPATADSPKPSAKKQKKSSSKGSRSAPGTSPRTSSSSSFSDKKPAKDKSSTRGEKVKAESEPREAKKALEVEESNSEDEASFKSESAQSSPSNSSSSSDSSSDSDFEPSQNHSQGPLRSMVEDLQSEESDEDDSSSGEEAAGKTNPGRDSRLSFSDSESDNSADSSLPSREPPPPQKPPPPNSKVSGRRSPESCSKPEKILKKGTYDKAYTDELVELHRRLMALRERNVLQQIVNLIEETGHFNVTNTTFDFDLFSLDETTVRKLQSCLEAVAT", "assay": "ENL degradation in MV4;11 cells (Western blot)", "assay_type": "cell-based", "procedure": "(§1) Next, Applicant tested whether the compounds degrade ENL and AF9 in MV4;11 leukemia cells with the .MLL1-AF4 oncogene. Upon compound treatment for 24 h, the cells were washed, lysed, and the lysates subjected to SDS-PAGE (sodium dodecyl sulphate-polyacrylamide gel electrophoresis) followed by detection with Western blot."}, "ENL [2]": {"target": "T1, ENL", "assay": "ENL degradation in Molm-13 cells (Western blot)", "assay_type": "cell-based", "details": "Molm-13 cells (MLL1-AF9), 24 h", "procedure": "as §1\nIn addition, compound 1 efficiently degraded ENL in another MLL1-r leukemia Molm-13 cells (with MLL1-AF9) with DC50 of 47 nM and Dmax of ˜88% (FIG. 3E). Moreover, significant ENL degradation can be detected in 2 h and depletion occurred within 24 h (FIG. 3F)."}, "H3K79 methylation": {"test_system": "H3K79 methylation", "assay": "Nuclear H3K79 methylation in MV4;11 cells, 4 days", "assay_type": "cell-based", "description": "Applicant further investigated how compound 1 affects ENL, AF9 and other proteins of SEC in the cytoplasmic and nuclear compartments, the latter of which are more relevant to the functions of these transcription cofactors. […] Upon treatment of MV4;11 cells with these compounds for 4 days, cytoplasmic and nuclear proteins were separated and subjected to SDS-PAGE/Western blot."}, "ENL [3]": {"target": "T1, ENL", "assay": "ChIP-qPCR, ENL at Myc and HoxA9 gene promoters", "assay_type": "cell-based", "details": "500 nM", "description": "Chromatin immunoprecipitation (ChIP) followed by qPCR was used to further probe the activity of compound 1 in the gene promoters of Myc and HoxA9, two characteristic MLL1 target genes."}, "[4]": {"test_system": "Kasumi-1, RPMI-8226 and U266 cells", "details": "read-out: EC50, proliferation; AML Kasumi-1 and myeloma RPMI-8226 and U266 cells, range over cell lines", "description": "(§2) FIGS. 6A-6G summarize the antitumor activities of ENL-targeting compounds."}, "Panc1": {"test_system": "Panc1", "details": "read-out: EC50, proliferation; Panc1 (pancreatic) cells", "description": "as §2"}, "Molm-13 cells [5]": {"test_system": "Molm-13 cells", "assay": "Differentiation of Molm-13 cells (CD14, CD11b)", "assay_type": "cell-based", "details": "3 μM for 5 days"}, "[6]": {"assay": "In vivo toxicity in C57BL/6 mice", "details": "30 mg/kg/day for 13 days", "procedure": "In vivo antitumor activity of compound 1 was evaluated in a commonly used mouse model of Molm-13 leukemia. First, in vivo toxicity was assessed in C57BL/6 mice."}, "HoxA11 and HoxA13": {"test_system": "HoxA11 and HoxA13", "assay": "mENL-driven HoxA11 and HoxA13 expression in HEK293T cells", "assay_type": "cell-based", "parameters": "dose or concentration left out as unconfirmed", "details": "24 h incubation", "description": "Next, Applicant investigated how mENL degradation affect expression of HoxA11 and HoxA13 in this cell model."}, "RPMI-8226 cells": {"test_system": "RPMI-8226 cells", "assay": "Gene profiling and GSEA in RPMI-8226 cells", "assay_type": "cell-based", "details": "500 nM for 4 days"}, "ENL [7]": {"target": "T1, ENL", "assay": "ENL degradation in MV4;11 cells (Western blot)", "assay_type": "cell-based", "details": "500 nM"}, "Molm-13 cells [8]": {"test_system": "Molm-13 cells", "details": "Molm13 cells, footnote b: reported in Li, et al. J Hematol Oncol, 2022; read-out: Anti-proliferative activity EC50, Molm13; cited from earlier work"}, "MV4;11 cells": {"test_system": "MV4;11 cells", "details": "footnote b: reported in Li, et al. J Hematol Oncol, 2022, read-out: Anti-proliferative activity EC50, MV4; cited from earlier work"}, "[9]": {"target": "T2, ENL YEATS-H3K27ac interaction (Homo sapiens, UniProt Q03111)", "T2 sequence (Q03111 1-138 limits assumed)": "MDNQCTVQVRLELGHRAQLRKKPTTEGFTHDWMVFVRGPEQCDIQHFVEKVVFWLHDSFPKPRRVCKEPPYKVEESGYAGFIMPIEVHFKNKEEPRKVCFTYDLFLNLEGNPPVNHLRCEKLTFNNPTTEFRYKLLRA", "assay": "ALPHA assay, inhibition of ENL YEATS-H3K27ac interaction", "details": "read-out: IC50, inhibition of ENL YEATS-H3K27ac interaction"}},
  "note": "pEC50, pIC50: −log10 of the molar value.",
  "data": [
    {"molecule": "C[C@H]1CCCN1Cc1nc2cc(NC(=O)c3ccc4c(cnn4CCCCCCCCNc4cccc5c4C(=O)N(C4CCC(=O)NC4=O)C5=O)c3)ccc2[nH]1", "note": "(stereo partly shown) [Compound 1]", "values": [
      {"measurement": "Dmax (maximal degradation), ENL", "setting": "ENL [1]; 24 h treatment", "value": "~95", "unit": "%"},
      {"measurement": "concentration at which ENL is almost depleted", "setting": "ENL [1]; 24 h treatment", "value": "~500", "unit": "nM"},
      {"measurement": "DC50", "setting": "ENL [1]; 24 h treatment, read-out: DC50 (concentration at which a protein is reduced by 50%), ENL", "value": 37, "unit": "nM"},
      {"measurement": "concentration of maximal ENL-degrading activity", "setting": "ENL [1]; FIG. 3D", "value": "~500", "unit": "nM"},
      {"measurement": "concentrations at which ENL level started to recover (hook effect)", "setting": "ENL [1]; FIG. 3D", "value": "1 to 10", "unit": "µM"},
      {"measurement": "DC50", "setting": "ENL [2]", "value": 47, "unit": "nM"},
      {"measurement": "Dmax, ENL", "setting": "ENL [2]", "value": "~88", "unit": "%"},
      {"measurement": "nuclear levels of H3K79 methylation", "setting": "H3K79 methylation", "value": "not consistently affected"},
      {"measurement": "ENL levels at Myc and HoxA9 gene promoters", "setting": "ENL [3]", "value": "significantly reduced"},
      {"measurement": "pEC50", "setting": "[4]", "value": "5.39 to 5.96"},
      {"measurement": "pEC50", "setting": "Panc1", "value": "< 4.30"},
      {"measurement": "cell differentiation (CD14, CD11b)", "setting": "Molm-13 cells [5]", "value": "induced cell differentiation"},
      {"measurement": "body weight", "setting": "[6]", "value": "did not cause significant weight losses"},
      {"measurement": "hematopoiesis and overt toxicities", "setting": "[6]", "value": "did not inhibit normal hematopoiesis or cause other overt toxicities"},
      {"measurement": "blood cell counts vs control", "setting": "[6]; blood test on day-14", "value": "no significant differences in blood cell counts"},
      {"measurement": "overexpression of HoxA11 and HoxA13", "setting": "HoxA11 and HoxA13", "value": "significantly inhibited overexpression of HoxA11 and HoxA13"},
      {"measurement": "expression of MYC target gene set (GSEA)", "setting": "RPMI-8226 cells", "value": "significantly down-regulated"},
      {"measurement": "time at which significant ENL degradation can be detected", "setting": "ENL [7]", "value": 2, "unit": "h"},
      {"measurement": "time to ENL depletion", "setting": "ENL [7]", "value": "≤ 24", "unit": "h"},
      {"measurement": "pEC50", "setting": "Molm-13 cells [8]", "value": 6.49},
      {"measurement": "pEC50", "setting": "MV4;11 cells", "value": 6.24},
      {"measurement": "pIC50", "setting": "[9]", "value": 6.77}
    ]}
  ]
}
